For the assay, the species on record is Rattus norvegicus. Nature of the assay: Agonist activity relative to angiotensin II in uterine contraction was estimated in rat using rat oxytocic assay.

Residues, ends and D or L forms follow the SMILES beside them.

In the case of `CC(C)[C@H](NC(=O)[C@H](CCCN=C(N)N)NC(=O)[C@@H](N)CC(=O)O)C(=O)N[C@@H](Cc1ccc(O)cc1)C(=O)N[C@H](C(=O)N[C@@H](Cc1c[nH]cn1)C(=O)N1CCC[C@H]1C(=O)N[C@@H](Cc1ccccc1)C(=O)O)C(C(F)(F)F)C(F)(F)F` (HELM PEPTIDE1{D.R.V.Y.[O=C([C@@H](N[*:1])C(C(F)(F)F)C(F)(F)F)[*:2]].H.P.F}$$$$V2.0), the Relative activity is 133%.
Consider `CC(C)[C@H](NC(=O)[C@H](CCCN=C(N)N)NC(=O)[C@@H](N)CC(=O)O)C(=O)N[C@@H](Cc1ccc(O)cc1)C(=O)N[C@@H](C(=O)N[C@@H](Cc1c[nH]cn1)C(=O)N1CCC[C@H]1C(=O)N[C@@H](Cc1ccccc1)C(=O)O)C(C(F)(F)F)C(F)(F)F` (HELM PEPTIDE1{D.R.V.Y.[O=C([C@H](N[*:1])C(C(F)(F)F)C(F)(F)F)[*:2]].H.P.F}$$$$V2.0), for which the Relative activity is given as less than 1%.

Values taken from ChEMBL document CHEMBL1121692, “Synthesis of fluorine-containing peptides. Analogues of angiotensin II containing hexafluorovaline” (J Med Chem, 1981).
